ChEMBL document CHEMBL1150319, “Activity-based probe for specific photoaffinity labeling gamma-aminobutyric acid B (GABAB) receptors on living cells: design, synthesis, and biological evaluation” (J Med Chem, 2008)
pIC50: −log10 of the molar value. Active and inactive are the calls of the source. No cut-off for these calls is given here.

What was measured:
CHO [1] = experiment: Binding affinity at intracellular GABA B receptor expressed in CHO cells at 1uM before 15 mins of UV irradiation by […] microscopy based photoaffinity labeling; type: cell-based
CHO [2] = experiment: Binding affinity at cell surface GABA B receptor expressed in CHO cells at 1 uM before 15 mins of UV irradiation by […] microscopy based photoaffinity labeling
[3] = Antagonist activity at GABA B receptor expressed in HEK293 cells assessed as inhibition of GABA-induced IP production after 15 mins; type: functional, cell-based; details: HEK293, 0.25 h
CHO [4] = experiment: Binding affinity at intracellular DsRed2-tagged GABA B receptor expressed in CHO cells at 1 uM by fluorescence confocal microscopy based photoaffinity labeling; type: cell-based
CHO [5] = experiment: Displacement of CGP-64213 from GABA B1-ASA receptor mutant expressed in CHO cells at 1 uM; type: cell-based
CHO [6] = experiment: Increase in labeling efficiency in CHO cells expressing GABA B1-ASA receptor mutant after UV irradiation; type: cell-based
HEK293 = experiment: Antagonist activity at GABA B receptor expressed in HEK293 cells assessed as inhibition of GABA-induced IP production at 10 uM after 15 mins; type: functional, cell-based

| Structure (SMILES) | Activity (CHO [1]) | Activity (CHO [2]) | pIC50 [3] | Activity (CHO [4]) | Activity (CHO [5]) | Activity (CHO [6]) | Activity (HEK293) |
| --- | --- | --- | --- | --- | --- | --- | --- |
| CC1=CC(C)=[N+]2C1=C(CCCC(=O)NCc1cn(CC(=O)NCCOCCOCCOc3cc(C4(C(F)(F)F)N=N4)ccc3C(=O)NCCCCCP(=O)(O)C[C@@H](O)CN[C@H](C)c3cccc(C(=O)O)c3)nn1)c1c(C)cc(C)n1[B-]2(F)F | inactive | Active | 5.99 | inactive | Active | Active | – |
| CC1=CC(C)=[N+]2C1=C(CCCC(=O)NCCOCCOCCOc1cc(C3(C(F)(F)F)N=N3)ccc1CO)c1c(C)cc(C)n1[B-]2(F)F | – | – | – | – | inactive | – | inactive |
